Experimental data reported in patent US20250129067A1 (Progentos Therapeutics, Inc., priority 2021, published 2025).
Where two headings read alike, the source gives them in different places.

Tests used:
[1] = system: Oligodendrocyte progenitor cells (OPCs); experiment: In vitro OPC differentiation assay, GPR17 expression (immunocytochemistry); settings: 72 hours; for GPR17 Fold Induction (Over Vehicle; 3 μM): 3 μM (10× concentration, final 0.3 μM), fold change over vehicle; for GPR17 Fold Induction (Over Vehicle; 5 μM): primary rat OPCs, 5 μM (10x; final 0.5 μM per method), percent GPR17+ cells as fold change over vehicle
[2] = molecular target: PDGFRα (Homo sapiens (Human), UniProt P16234); experiment: PDGFRα kinase enzyme assay (Promega PDGFRα Kinase Enzyme System, ADP-Glo); assay type: biochemical; settings: 150 uM ATP
PDGFRα, sequence (P16234 24-1089): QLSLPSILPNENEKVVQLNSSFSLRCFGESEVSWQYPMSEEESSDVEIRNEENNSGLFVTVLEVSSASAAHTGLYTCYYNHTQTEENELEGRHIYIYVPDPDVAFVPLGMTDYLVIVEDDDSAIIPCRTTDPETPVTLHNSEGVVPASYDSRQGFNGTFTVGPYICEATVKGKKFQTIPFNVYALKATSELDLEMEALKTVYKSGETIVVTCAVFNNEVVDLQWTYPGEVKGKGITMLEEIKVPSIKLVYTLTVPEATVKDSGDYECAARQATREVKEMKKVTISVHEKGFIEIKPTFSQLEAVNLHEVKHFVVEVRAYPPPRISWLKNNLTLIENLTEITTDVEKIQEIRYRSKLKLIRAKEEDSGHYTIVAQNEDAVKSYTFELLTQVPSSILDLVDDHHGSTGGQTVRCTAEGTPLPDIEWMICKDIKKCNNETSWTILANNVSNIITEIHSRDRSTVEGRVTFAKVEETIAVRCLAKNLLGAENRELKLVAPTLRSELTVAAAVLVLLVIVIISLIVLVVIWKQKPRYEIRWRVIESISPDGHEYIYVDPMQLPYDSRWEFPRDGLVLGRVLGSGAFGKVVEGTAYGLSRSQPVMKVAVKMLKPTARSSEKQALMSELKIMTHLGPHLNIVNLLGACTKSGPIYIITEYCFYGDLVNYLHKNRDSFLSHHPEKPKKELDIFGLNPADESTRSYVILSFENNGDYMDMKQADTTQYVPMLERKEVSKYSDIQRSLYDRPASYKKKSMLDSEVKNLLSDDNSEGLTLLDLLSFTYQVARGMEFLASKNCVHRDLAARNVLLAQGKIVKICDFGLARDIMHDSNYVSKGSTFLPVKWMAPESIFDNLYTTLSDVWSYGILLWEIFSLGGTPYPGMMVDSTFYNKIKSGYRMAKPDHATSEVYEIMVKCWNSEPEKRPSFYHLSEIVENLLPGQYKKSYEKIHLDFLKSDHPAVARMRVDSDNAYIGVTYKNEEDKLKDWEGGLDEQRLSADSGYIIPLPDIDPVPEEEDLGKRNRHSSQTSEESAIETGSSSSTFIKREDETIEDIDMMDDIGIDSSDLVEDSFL
Method in brief: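 Read-out was ADP-Glo: remaining ATP depleted, ADP converted to luminescence and compared with a standard curve.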

[3] = 11-point dose response, 10,000 nM to 0.169 nM, BLQ = below limit of quantitation, read-out: IC50 Values on PDGFRα Kinase Inhibition, IC50
[4] = 20 ng purified PDGFRα, Poly (Glu4Tyr1) substrate, two hours, 11-point dose response, read-out: IC50 Values on PDGFRα Kinase Inhibition

| Structure (SMILES) | GPR17 Fold Induction (Over Vehicle; 3 μM) [1] | IC50 [2, 3] | IC50 Values on PDGFRα Kinase Inhibition, IC50 (nM) ([2]; 11-point dose response, 10,000 nM to 0.169 nM, BLQ = below limit of quantitation) | GPR17 Fold Induction (Over Vehicle; 5 μM) [1] | IC50 [2, 4] |
| --- | --- | --- | --- | --- | --- |
| Cn1cc(-c2ccc3c(N4CCN(c5ncc(CN6CCc7ccccc76)cn5)CC4)cnn3c2)cn1 [Compound 174, 3-(4-(5-(indolin-1-ylmethyl)pyrimidin-2-yl)piperazin-1-yl)-6-(1-methyl-1H-pyrazol-4-yl)pyrazolo[1,5-a]pyridine] | 6.67 | 0.306 µM | – | – | – |
| CN1CCC(c2ccc3c(N4CCN(C(=O)OC(C)(C)C)CC4)cnn3c2)C1 (stereo not shown) [Compound 223, tert-butyl 4-(6-(1-methylpyrrolidin-3-yl)pyrazolo[1,5-a]pyridin-3-yl)piperazine-1-carboxylate] | 1.13 | 9.25 µM | – | – | – |
| Cn1cc(-c2ccc3c(N4CCN(C(=O)OC(C)(C)C)CCC4=O)cnn3c2)cn1 [Compound 27, tert-butyl 4-[6-(1-methyl-1H-pyrazol-4-yl)pyrazolo[1,5-a]pyridine-3-yl]-5-oxo-1,4-diazepane-1-carboxylate] | 0.96 | > 10 µM | – | – | – |
| CN(CCN(C)c1cnn2cc(-c3cnn(C)c3)ccc12)c1ncc(Cc2ccccc2)cn1 [Compound 127, N^1-(5-benzylpyrimidin-2-yl)-N^1,N^2-dimethyl-N^2-(6-(1-methyl-1H-pyrazol-4-yl)pyrazolo[1,5-a]pyridin-3-yl)ethane-1,2-diamine] | 1.36 | > 10 µM | – | – | – |
| Cn1cc(-c2ccc3c(C4=CCC(CCc5ccccc5)CC4)cnn3c2)cn1 (stereo not shown) [Compound 242, 6-(1-methyl-1H-pyrazol-4-yl)-3-(4-phenethylcyclohex-1-en-1-yl)pyrazolo[1,5-a]pyridine] | 2.24 | > 10 µM | – | – | – |
| COC(=O)[C@@]1(O)C[C@H]2O[C@]1(C)n1c3ccccc3c3c4c(c5c6ccccc6n2c5c31)C(=O)NC4 [Compound K252a, K252a, reference compound] | – | – | – | 2.53 | 0.427 µM |
| Cn1cc(-c2ccc3c(C4CCC(CCc5ccccc5)CC4)cnn3c2)cn1 (stereo not shown) [Compound 141, 6-(1-methyl-1H-pyrazol-4-yl)-3-(4-phenethylcyclohexyl)pyrazolo[1,5-a]pyridine] | 1.09 | > 10 µM | – | – | – |
| Cn1cc(-c2ccc3c(N4CC(Nc5ncc(Cc6ccccc6)cn5)C4)cnn3c2)cn1 [Compound 149, 5-benzyl-N-(1-(6-(1-methyl-1H-pyrazol-4-yl)pyrazolo[1,5-a]pyridin-3-yl)azetidin-3-yl)pyrimidin-2-amine] | 8.88 | > 10 µM | – | – | – |
| Cn1cc(-c2ccc3c(C4=CCC(C(=O)OCc5ccccc5)C4)cnn3c2)cn1 (stereo not shown) [Compound 133, benzyl 3-[6-(1-methylpyrazol-4-yl)pyrazolo[1,5-a]pyridin-3-yl]cyclopent-3-ene-1-carboxylate] | 3.02 | 1.44 µM | – | – | – |
| COCCn1cc(-c2ccn3c(N(C)CCN(C)C(=O)OC(C)(C)C)cnc3n2)cn1 [Compound 109, tert-butyl (2-((7-(1-(2-methoxyethyl)-1H-pyrazol-4-yl)imidazo[1,2-a]pyrimidin-3-yl)(methyl)amino)ethyl)(methyl)carbamate] | 1.38 | > 10 µM | – | – | – |
| CC(C)(C)OC(=O)N1CCN(c2cnn3cc(C4CCOC4)ccc23)CC1 (stereo not shown) [Compound 304, tert-butyl 4-(6-(tetrahydrofuran-3-yl)pyrazolo[1,5-a]pyridin-3-yl)piperazine-1-carboxylate] | 1.77 | > 10 µM | – | – | – |
| Cn1cc(-c2ccc3c(C4=CCC(COc5ccccc5)CC4)cnn3c2)cn1 (stereo not shown) [Compound 243, 1-methyl-4-{3-[4-(phenoxymethyl)cyclohex-1-en-1-yl]pyrazolo[1,5-a]pyridin-6-yl}pyrazole] | 0.62 | > 10 µM | – | – | – |
| COc1ccc(-c2cncc(N[C@@H](C)c3cccc(NC(=O)c4cncc(C)c4)c3)n2)cc1OC [Seralutinib, seralutinib, reference compound] | – | – | – | 3.53 | 0.228 µM |
| CC(C)(C)OC(=O)N1CCN(c2cnn3cc(-c4ccccc4)ccc23)CC1 [Compound 206, tert-butyl 4-(6-phenylpyrazolo[1,5-a]pyridin-3-yl)piperazine-1-carboxylate] | 3.32 | 5.34 µM | – | – | – |
| COc1ccccc1-c1ccc2c(N3CCN(C(=O)OC(C)(C)C)CC3)cnn2c1 [Compound 212, tert-butyl 4-(6-(2-methoxyphenyl)pyrazolo[1,5-a]pyridin-3-yl)piperazine-1-carboxylate] | 2.51 | 3.67 µM | – | – | – |
| Cn1cc(-c2ccc3c(NCC(=O)Nc4ncc(Cc5ccccc5)cn4)cnn3c2)cn1 [Compound 244, N-(5-benzylpyrimidin-2-yl)-2-((6-(1-methyl-1H-pyrazol-4-yl)pyrazolo[1,5-a]pyridin-3-yl)amino) acetamide] | 4.76 | 2.14 µM | – | – | – |

Continued, in another order:

| GPR17 Fold Induction (Over Vehicle; 3 μM) [1] | IC50 [2, 3] | IC50 Values on PDGFRα Kinase Inhibition, IC50 (nM) ([2]; 11-point dose response, 10,000 nM to 0.169 nM, BLQ = below limit of quantitation) | Structure (SMILES) | GPR17 Fold Induction (Over Vehicle; 5 μM) [1] | IC50 [2, 4] |
| --- | --- | --- | --- | --- | --- |
| 2.11 | 2.7 µM | – | C[C@H](c1ccc(Cl)cc1)N(C)C(=O)N1CCN(c2cnn3cc(-c4cnn(C)c4)ccc23)CC1 [Compound 276, (R)—N-(1-(4-chlorophenyl)ethyl)-N-methyl-4-(6-(1-methyl-1H-pyrazol-4-yl)pyrazolo[1,5-a]pyridin-3-yl)piperazine-1-carboxamide] | – | – |
| 5.65 | 0.522 µM | – | Cn1cc(-c2ccc3c(N4CCN(C(=O)OCc5ccc(Cl)s5)CC4)cnn3c2)cn1 [Compound 196, (5-chlorothiophen-2-yl)methyl 4-(6-(1-methyl-1H-pyrazol-4-yl)pyrazolo[1,5-a]pyridin-3-yl)piperazine-1-carboxylate] | – | – |
| 1.39 | 1.39 µM | – | Cn1cc(-c2ccc3c(N4CCN(C(=O)OC(C)(C)C)CC4)cnn3n2)cn1 [Compound 45, Tert-butyl 4-[6-(1-methyl-1H-pyrazol-4-yl)pyrazolo[1,5-b]pyridazin-3-yl]piperazine-1-carboxylate] | – | – |
| 12.67 | 0.51 µM | – | Cn1cc(-c2ccc3c(N4CCN(c5ncc(CC6CCCOC6)cn5)CC4)cnn3c2)cn1 (stereo not shown) [Compound 185, 6-(1-methyl-1H-pyrazol-4-yl)-3-(4-(5-((tetrahydro-2H-pyran-3-yl)methyl)pyrimidin-2-yl)piperazin-1-yl)pyrazolo[1,5-a]pyridine] | – | – |
| 5.92 | – | BLQ | C[C@@H](NC(=O)N1CCN(c2cnn3cc(-c4cnn(C)c4)ccc23)CC1)c1ccc(C(F)(F)F)cc1 [Compound 288, 4-[6-(1-methyl-1H-pyrazol-4-yl)pyrazolo[1,5-a]pyridin-3-yl]-N-{(1R)-1-[4-(trifluoromethyl)phenyl]ethyl}piperazine-1-carboxamide] | – | – |
| 4.86 | > 10 µM | – | CC1CC(COC(=O)N2CCN(c3cnn4cc(-c5cnn(C)c5)ccc34)CC2)C1 (stereo not shown) [Compound 310, (3-methylcyclobutyl)methyl 4-[6-(1-methyl-1H-pyrazol-4-yl)pyrazolo[1,5-a]pyridin-3-yl]piperazine-1-carboxylate] | – | – |
| 2.90 | 1.48 µM | – | CN(Cc1ccccc1)C(=O)N1CCN(c2cnn3cc(-c4cnn(C)c4)ccc23)CC1 [Compound 162, N-benzyl-N-methyl-4-(6-(1-methyl-1H-pyrazol-4-yl)pyrazolo[1,5-a]pyridin-3-yl)piperazine-1-carboxamide] | – | – |
| 18.42 | 0.686 µM | – | Cn1cc(-c2ccc3c(N4CCN(c5ncc(CCC(O)c6ccccc6)cn5)CC4)cnn3c2)cn1 (stereo not shown) [Compound 165, 3-(2-(4-(6-(1-methyl-1H-pyrazol-4-yl)pyrazolo[1,5-a]pyridin-3-yl)piperazin-1-yl)pyrimidin-5-yl)-1-phenylpropan-1-ol] | – | – |
| 8.04 | 1.71 µM | – | Cn1cc(-c2ccn3c(N4CCN(C(=O)NCc5ccc(C(F)(F)F)cc5)CC4)cnc3n2)cn1 [Compound 119, 4-(7-(1-methyl-1H-pyrazol-4-yl)imidazo[1,2-a]pyrimidin-3-yl)-N-(4-(trifluoromethyl)benzyl)piperazine-1-carboxamide] | – | – |
| 1.88 | > 10 µM | – | Cn1cc(-c2ccc3c(N4CCN(c5ncnn5Cc5ccccc5)CC4)cnn3c2)cn1 [Compound 239, 3-(4-(1-benzyl-1H-1,2,4-triazol-5-yl)piperazin-1-yl)-6-(1-methyl-1H-pyrazol-4-yl)pyrazolo[1,5-a]pyridine] | – | – |
| 6.74 | 0.0972 µM | – | C[C@@H](OC(=O)N1CCN(c2cnn3cc(-c4cnn(C)c4)ccc23)CC1)c1ccccc1F [Compound 81, (1R)-1-(2-Fluorophenyl)ethyl 4-[6-(1-methyl-1H-pyrazol-4-yl)pyrazolo[1,5-a]pyridin-3-yl]piperazine-1-carboxylate] | – | – |
| 5.94 | 0.784 µM | – | Cn1cc(-c2ccc3c(N4CCN(c5ncc(CC(O)c6ccccc6)cn5)CC4)cnn3c2)cn1 (stereo not shown) [Compound 164, 2-(2-(4-(6-(1-methyl-1H-pyrazol-4-yl)pyrazolo[1,5-a]pyridin-3-yl)piperazin-1-yl)pyrimidin-5-yl)-1-phenylethan-1-ol] | – | – |
| 1.88 | > 10 µM | – | Cn1cc(-c2ccc3c(N4CCN(c5ncc(Cc6ccccc6)cn5)CC4)nnn3c2)cn1 [Compound 9, 3-[4-(5-benzylpyrimidin-2-yl)piperazin-1-yl]-6-(1-methyl-1H-pyrazol-4-yl)[1,2,3]triazolo[1,5-a]pyridine] | – | – |
